Test results published in patent US6737383B1, “Herbicidal oxadiazolidines” (priority 1999, dated 2004).

Assays:
bamyardgrass = assay: Test B flood test barnyardgrass; format: in vivo, Echinochloa crus-galli
How it was run: (§1)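 Each value is a visual injury score relative to controls, with 10 meaning complete control and 0 no effect. Evaluation took place twelve to sixteen days after the 2-leaf-stage plants were treated and kept in the greenhouse.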

blackgrass = assay: Test B pre/postemergence blackgrass; format: in vivo, Alopecurus myosuroides
How it was run: (§2)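 Response is a visual 0-to-10 score relative to untreated plants, where 0 means no effect and 10 means complete control, taken twelve to sixteen days after application. Treatments went onto soil at planting and onto foliage of 1- to 4-leaf plants, using a surfactant-containing non-phytotoxic solvent.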

surinam grass = assay: Test B pre/postemergence surinam grass; format: in vivo, Brachiaria decumbens
How it was run: as §2

purple nutsedge = assay: Test B pre/postemergence purple nutsedge; format: in vivo, Cyperus rotundus
How it was run: as §2

bedstraw = assay: Test B pre/postemergence bedstraw; format: in vivo, Galium aparine
How it was run: as §2

wheat = assay: Test B pre/postemergence wheat; format: in vivo, Triticum aestivum
How it was run: as §2

giant foxtail = assay: Test B pre/postemergence giant foxtail; format: in vivo, Setaria faberii
How it was run: as §2

rape = assay: Test B pre/postemergence rape; format: in vivo, Brassica napus
How it was run: as §2

corn = assay: Test B pre/postemergence corn; format: in vivo, Zea mays
How it was run: as §2

soybean = assay: Test B pre/postemergence soybean; format: in vivo, Glycine max
How it was run: as §2

crabgrass = assay: Test B pre/postemergence crabgrass; format: in vivo, Digitaria sanguinalis
How it was run: as §2

cocklebur = assay: Test B pre/postemergence cocklebur; format: in vivo, Xanthium strumarium
How it was run: as §2

duck salad = assay: Test B flood test duck salad; format: in vivo, Heteranthera limosa
How it was run: as §1

smallflower flatsedge = assay: Test B flood test smallflower flatsedge; format: in vivo, Cyperus difformis; conditions: for S. Flatsedge plant response rating: scale of 0 to 10 where 0 is no effect and 10 is complete control
How it was run: as §1

rice = assay: Test B flood test rice; format: in vivo, Oryza sativa
How it was run: as §1

sugar beet = assay: Test B pre/postemergence sugar beet; format: in vivo, Beta vulgaris
How it was run: as §2

velvetleaf = assay: Test B pre/postemergence velvetleaf; format: in vivo, Abutilon theophrasti
How it was run: as §2

[1] = Postemergence (flood test species), Rate 125 g/ha, scale of 0 to 10 where 0 is no effect and 10 is complete control
[2] = Rate 31 g/ha, Postemergence section (flood test species), scale 0 to 10
[3] = Rate 62 g/ha, Postemergence section, flood test species, scale of 0 to 10 where 0 is no effect and 10 is complete control
[4] = Rate 250 g/ha, Postemergence (flood test), scale 0 to 10, 0 is no effect, 10 is complete control
[5] = Postemergence, Rate 125 g/ha, scale of 0 to 10 where 0 is no effect and 10 is complete control
[6] = Preemergence, Rate 62 g/ha, scale 0 to 10 (0 no effect, 10 complete control)
[7] = Preemergence, Rate 125 g/ha, 0 is no effect, 10 is complete control
[8] = Preemergence, Rate 250 g/ha, scale 0 to 10, 0 is no effect, 10 is complete control
[9] = Preemergence, Rate 500 g/ha, scale 0 to 10 (0 no effect, 10 complete control)
[10] = Rate 62 g/ha, Postemergence, scale of 0 to 10 where 0 is no effect and 10 is complete control
[11] = Rate 250 g/ha, Postemergence, scale 0 to 10, 0 is no effect, 10 is complete control
[12] = Rate 500 g/ha, Postemergence, scale 0 to 10

CC(C)N(C(=O)n1oc(=O)n(C)c1=O)c1ccc(F)cc1 [Compound 138]
Barnyardgrass plant response rating (bamyardgrass; [1]): 0
Barnyardgrass plant response rating (bamyardgrass; [2]): 0
Barnyardgrass plant response rating (bamyardgrass; [3]): 0
Plant response rating, Barnyardgrass (bamyardgrass; [4]): 8
Blackgrass plant response rating (blackgrass; [5]): 9
Blackgrass plant response rating (blackgrass; [6]): 9
Blackgrass plant response rating (0 to 10 scale) (blackgrass; [7]): 9
Blackgrass plant response rating (blackgrass; [8]): 9
Blackgrass plant response rating (blackgrass; [9]): 9
Blackgrass plant response rating (blackgrass; [10]): 7
Plant response rating, Blackgrass (blackgrass; [11]): 9
Blackgrass plant response rating (blackgrass; [12]): 9
B. signalgrass plant response rating (surinam grass; [5]): 7
B. signalgrass plant response rating (surinam grass; [6]): 2
B. signalgrass plant response rating (0 to 10 scale) (surinam grass; [7]): 4
B. signalgrass plant response rating (surinam grass; [8]): 6
B. signalgrass plant response rating (surinam grass; [9]): 9
B. signalgrass plant response rating (surinam grass; [10]): 5
Plant response rating, B. signalgrass (surinam grass; [11]): 8
B. signalgrass plant response rating (surinam grass; Rate 500 g/ha, Postemergence, scale of 0 to 10 where 0 is no effect and 10 is complete control): 8
Nutsedge plant response rating (purple nutsedge; [5]): 5
Nutsedge plant response rating (purple nutsedge; [6]): 2
Nutsedge plant response rating (0 to 10 scale) (purple nutsedge; [7]): 5
Nutsedge plant response rating (purple nutsedge; [8]): 7
Nutsedge plant response rating (purple nutsedge; [9]): 7
Nutsedge plant response rating (purple nutsedge; [10]): 4
Plant response rating, Nutsedge (purple nutsedge; [11]): 6
Bedstraw plant response rating (bedstraw; [5]): 7
Bedstraw plant response rating (bedstraw; [6]): 5
Bedstraw plant response rating (0 to 10 scale) (bedstraw; [7]): 7
Bedstraw plant response rating (bedstraw; [8]): 10
Bedstraw plant response rating (bedstraw; [9]): 10
Bedstraw plant response rating (bedstraw; [10]): 2
Plant response rating, Bedstraw (bedstraw; [11]): 8
Bedstraw plant response rating (bedstraw; Rate 500 g/ha, Postemergence, scale 0 to 10, 0 no effect, 10 complete control): 9
Wheat plant response rating (wheat; [5]): 8
Wheat plant response rating (wheat; [6]): 3
Wheat plant response rating (0 to 10 scale) (wheat; [7]): 5
Wheat plant response rating (wheat; [8]): 6
Wheat plant response rating (wheat; [9]): 9
Wheat plant response rating (wheat; [10]): 3
Plant response rating, Wheat (wheat; [11]): 8
Wheat plant response rating (wheat; [12]): 8
Giant foxtail plant response rating (giant foxtail; [5]): 9
Giant foxtail plant response rating (giant foxtail; [6]): 7
Giant foxtail plant response rating (0 to 10 scale) (giant foxtail; [7]): 9
Giant foxtail plant response rating (giant foxtail; [8]): 10
Giant foxtail plant response rating (giant foxtail; [9]): 10
Giant foxtail plant response rating (giant foxtail; [10]): 9
Plant response rating, Giant foxtail (giant foxtail; [11]): 9
Giant foxtail plant response rating (giant foxtail; [12]): 9
Rape plant response rating (rape; [5]): 0
Rape plant response rating (rape; [6]): 7
Rape plant response rating (0 to 10 scale) (rape; [7]): 9
Rape plant response rating (rape; [8]): 10
Rape plant response rating (rape; [9]): 10
Rape plant response rating (rape; [10]): 0
Plant response rating, Rape (rape; [11]): 2
Rape plant response rating (rape; [12]): 7
Corn plant response rating (corn; [5]): 4
Corn plant response rating (corn; [6]): 0
Corn plant response rating (0 to 10 scale) (corn; [7]): 3
Corn plant response rating (corn; [8]): 8
Corn plant response rating (corn; [9]): 9
Corn plant response rating (corn; [10]): 0
Plant response rating, Corn (corn; [11]): 7
Corn plant response rating (corn; [12]): 7
Soybean plant response rating (soybean; [5]): 3
Soybean plant response rating (soybean; [6]): 0
Soybean plant response rating (0 to 10 scale) (soybean; [7]): 4
Soybean plant response rating (soybean; [8]): 5
Soybean plant response rating (soybean; [9]): 8
Soybean plant response rating (soybean; [10]): 2
Plant response rating, Soybean (soybean; [11]): 4
Soybean plant response rating (soybean; [12]): 4
Crabgrass plant response rating (crabgrass; [5]): 9
Crabgrass plant response rating (crabgrass; [6]): 9
Crabgrass plant response rating (0 to 10 scale) (crabgrass; [7]): 9
Crabgrass plant response rating (crabgrass; [8]): 10
Crabgrass plant response rating (crabgrass; [9]): 10
Crabgrass plant response rating (crabgrass; [10]): 8
Plant response rating, Crabgrass (crabgrass; [11]): 9
Crabgrass plant response rating (crabgrass; [12]): 9
Cocklebur plant response rating (cocklebur; [5]): 0
Cocklebur plant response rating (cocklebur; [6]): 0
Cocklebur plant response rating (cocklebur; [8]): 0
Cocklebur plant response rating (cocklebur; [9]): 0
Cocklebur plant response rating (cocklebur; [10]): 0
Plant response rating, Cocklebur (cocklebur; [11]): 2
Cocklebur plant response rating (cocklebur; [12]): 3
Ducksalad plant response rating (duck salad; [1]): 0
Ducksalad plant response rating (duck salad; [2]): 0
Ducksalad plant response rating (duck salad; [3]): 0
Plant response rating, Ducksalad (duck salad; [4]): 2
S. Flatsedge plant response rating (smallflower flatsedge; Postemergence (flood test species), Rate 125 g/ha): 0
S. Flatsedge plant response rating (smallflower flatsedge; Rate 62 g/ha, Postemergence section, flood test species): 0
Plant response rating, S. Flatsedge (smallflower flatsedge; [4]): 7
Rice plant response rating (rice; [1]): 7
Rice plant response rating (rice; [2]): 0
Rice plant response rating (rice; [3]): 0
Plant response rating, Rice (rice; [4]): 8
Sugarbeets plant response rating (sugar beet; [5]): 0
Sugarbeets plant response rating (sugar beet; [6]): 9
Sugarbeets plant response rating (0 to 10 scale) (sugar beet; [7]): 10
Sugarbeets plant response rating (sugar beet; [8]): 10
Sugarbeets plant response rating (sugar beet; [9]): 10
Sugarbeets plant response rating (sugar beet; [10]): 0
Plant response rating, Sugarbeets (sugar beet; [11]): 6
Sugarbeets plant response rating (sugar beet; [12]): 8
Velvetleaf plant response rating (velvetleaf; [5]): 4
Velvetleaf plant response rating (velvetleaf; [6]): 5
Velvetleaf plant response rating (0 to 10 scale) (velvetleaf; [7]): 8
Velvetleaf plant response rating (velvetleaf; [8]): 10
Velvetleaf plant response rating (velvetleaf; [9]): 10
Velvetleaf plant response rating (velvetleaf; [10]): 2
Plant response rating, Velvetleaf (velvetleaf; [11]): 4
Velvetleaf plant response rating (velvetleaf; [12]): 7
